ChEMBL document CHEMBL3351909, “In vitro and in vivo characterization of a benzofuran derivative, a potential anticancer agent, as a novel Aurora B kinase inhibitor” (Eur J Med Chem, 2015)
Calls of active or inactive are those of the source.

Assays:
MDA-MB-231 = assay: Cytotoxicity against human MDA-MB-231 cells after 96 hrs by CCK-8 assay; format: functional, cell-based; settings: MDA-MB-231, 96 h
[1] = Cytotoxicity against human PC3 cells after 96 hrs by CCK-8 assay; format: functional, cell-based; settings: PC-3, 96 h
LoVo = assay: Cytotoxicity against human LoVo cells after 96 hrs by CCK-8 assay; format: functional, cell-based
[2] = Cytotoxicity against human CaSki cells after 96 hrs by CCK-8 assay; format: functional, cell-based; settings: Ca-Ski
SW-620 [3] = assay: Growth inhibition of human SW620 cells at 5 to 20 uM after 96 hrs by CCK-8 assay; format: functional, cell-based
HeLa [4] = assay: Growth inhibition of human HeLa cells at 5 to 20 uM after 96 hrs by CCK-8 assay; format: functional, cell-based
HepG2 [5] = assay: Growth inhibition of human HepG2 cells at 5 to 20 uM after 96 hrs by CCK-8 assay; format: functional, cell-based
HepG2 [6] = assay: Inhibition of colony formation in human HepG2 cells at 5 uM after 96 hrs by crystal violet staining-based assay; format: functional, cell-based
SW-620 [7] = assay: Inhibition of colony formation in human SW620 cells at 5 uM after 96 hrs by crystal violet staining-based assay; format: functional, cell-based
HeLa [8] = assay: Inhibition of colony formation in human HeLa cells after 96 hrs by crystal violet staining-based assay; format: functional, cell-based
HepG2 [9] = assay: Inhibition of colony formation in human HepG2 cells after 96 hrs by crystal violet staining-based assay; format: functional, cell-based
SW-620 [10] = assay: Inhibition of colony formation in human SW620 cells after 96 hrs by crystal violet staining-based assay; format: functional, cell-based
HepG2 [11] = assay: Cell cycle arrest in human HepG2 cells assessed as accumulation at G2/M phase at 20 uM after 48 hrs by flow cytometry relative to control; format: functional
HepG2 [12] = assay: Cell cycle arrest in human HepG2 cells assessed as reduction in G1 phase at 20 uM after 48 hrs by flow cytometry relative to control; format: functional, cell-based
HeLa [13] = assay: Cell cycle arrest in human HeLa cells assessed as accumulation at G2/M phase at 20 uM after 48 hrs by flow cytometry relative to control; format: functional
Aurora kinase B [14] = biological target: T1, Aurora kinase B (Homo sapiens, UniProt Q96GD4); assay: Inhibition of AURKB in human HeLa cells assessed as reduction in histone H3 phosphorylation at 5 to 20 uM after 48 hrs by Western blotting analysis; format: cell-based
T1 sequence (Q96GD4 whole entry): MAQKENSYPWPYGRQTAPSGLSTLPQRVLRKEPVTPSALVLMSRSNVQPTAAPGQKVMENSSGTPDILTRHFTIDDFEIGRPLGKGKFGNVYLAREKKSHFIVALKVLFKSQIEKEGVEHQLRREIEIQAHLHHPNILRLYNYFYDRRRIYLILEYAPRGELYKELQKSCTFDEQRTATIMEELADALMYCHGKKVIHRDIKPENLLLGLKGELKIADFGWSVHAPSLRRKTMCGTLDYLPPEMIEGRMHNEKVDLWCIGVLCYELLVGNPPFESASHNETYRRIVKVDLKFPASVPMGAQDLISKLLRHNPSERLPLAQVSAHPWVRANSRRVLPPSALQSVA

Aurora kinase B [15] = biological target: T1, Aurora kinase B; assay: Inhibition of AURKB in human SW620 cells assessed as reduction in histone H3 phosphorylation at 5 to 20 uM after 48 hrs by Western blotting analysis; format: cell-based; settings: SW-620
Aurora kinase B [16] = biological target: T1, Aurora kinase B; assay: Inhibition of AURKB in human HepG2 cells assessed as reduction in histone H3 phosphorylation at 20 uM after 48 hrs by Western blotting analysis; format: cell-based
Aurora kinase B [17] = biological target: T1, Aurora kinase B; assay: Inhibition of AURKB in human HeLa cells assessed as reduction in histone H3 expression at 5 to 20 uM after 48 hrs by Western blotting analysis; format: cell-based
Aurora kinase B [18] = biological target: T1, Aurora kinase B; assay: Inhibition of AURKB in human SW620 cells assessed as reduction in histone H3 expression at 5 to 20 uM after 48 hrs by Western blotting analysis; format: cell-based; settings: SW-620
Aurora kinase B [19] = biological target: T1, Aurora kinase B; assay: Inhibition of AURKB in human HepG2 cells assessed as reduction in histone H3 expression at 5 to 20 uM after 48 hrs by Western blotting analysis; format: cell-based
Aurora kinase B [20] = biological target: T1, Aurora kinase B; assay: Inhibition of AURKB in human HeLa cells assessed as reduction in Aurora B expression at 5 to 20 uM after 48 hrs by Western blotting analysis; format: cell-based
Aurora kinase B [21] = biological target: T1, Aurora kinase B; assay: Inhibition of AURKB in human SW620 cells assessed as reduction in Aurora B expression expression at 5 to 20 uM after 48 hrs by Western blotting analysis; format: cell-based; settings: SW-620
Aurora kinase B [22] = biological target: T1, Aurora kinase B; assay: Inhibition of AURKB in human HepG2 cells assessed as reduction in Aurora B expression expression at 5 to 20 uM after 48 hrs by Western blotting analysis; format: cell-based
Aurora kinase B [23] = biological target: T1, Aurora kinase B; assay: Inhibition of AURKB in human HepG cells assessed as reduction in histone H3 phosphorylation at 5 to 20 uM after 48 hrs by […] analysis; format: cell-based
[24] = Antitumor activity against human QGY7401 cells xenografted in nude mouse assessed as reduction in tumor weight at 10 mg/kg, ip qd administered for 14 days measured on day 18 (reference value: 2.24 +/- 0.20 g); format: functional; settings: route intraperitoneal
[25] = Antitumor activity against human QGY7401 cells xenografted in nude mouse assessed as reduction in tumor weight at 20 mg/kg, ip qd administered for 14 days measured on day 18 (reference value: 2.24 +/- 0.20 g); format: functional; settings: route intraperitoneal
[26] = Antitumor activity against human QGY7401 cells xenografted in nude mouse assessed as reduction in body weight at 10 mg/kg, ip qd administered for 14 days measured on day 18 (reference value: 24.13 +/- 2.18 g); format: functional; settings: route intraperitoneal
[27] = Antitumor activity against human QGY7401 cells xenografted in nude mouse assessed as reduction in body weight at 20 mg/kg, ip qd administered for 14 days measured on day 18 (reference value: 24.13 +/- 2.18 g); format: functional; settings: route intraperitoneal
[28] = Antitumor activity against human QGY7401 cells xenografted in nude mouse assessed as inhibition of tumor growth at 10 mg/kg, ip qd administered for 14 days measured on day 18 relative to control; format: functional; settings: route intraperitoneal, read-out: TGI
[29] = Antitumor activity against human QGY7401 cells xenografted in nude mouse assessed as inhibition of tumor growth at 20 mg/kg, ip qd administered for 14 days measured on day 18 relative to control; format: functional; settings: route intraperitoneal, read-out: TGI
Mus musculus [30] = assay: Toxicity in nude mouse xenografted with human QGY7401 cells at 10 to 20 mg/kg, ip qd administered for 14 days measured on day 18; format: organism-based; design: dose 10-20 mg/kg, route intraperitoneal; settings: in vivo, 336 h
Homo sapiens [31] = assay: Inhibition of histone H3 phosphorylation in human QGY7401 cells xenografted in nude mouse at 10 to 20 mg/kg, ip qd administered for 14 days by hematoxylin and eosin staining-based microscopic analysis; format: functional, organism-based
Homo sapiens [32] = assay: Inhibition of histone H3 phosphorylation in human QGY7401 cells xenografted in ip dosed nude mouse administered qd for 14 days by Hematoxylin and eosin staining-based microscopic analysis; format: functional, organism-based
Mus musculus [33] = assay: Acute toxicity in mouse up to 1000 mg/kg, ip qd administered for 2 weeks; format: organism-based; design: dose 1000 mg/kg, route intraperitoneal; settings: in vivo, 336 h

O=C1/C(=C\c2ccc(O)c(O)c2)Oc2ccccc21
active: growth inhibition (GI) (SW-620 [3]) | growth inhibition (GI) (HeLa [4]) | growth inhibition (GI) (HepG2 [5]) | inhibition (HepG2 [6]) | inhibition (SW-620 [7]) | inhibition (HeLa [8]) Dose-dependent effect | inhibition (HepG2 [9]) Dose-dependent effect | inhibition (SW-620 [10]) Dose-dependent effect | Activity (HepG2 [12]) | inhibition (Aurora kinase B [14]) | inhibition (Aurora kinase B [15]) | inhibition (Aurora kinase B [16]) | inhibition (Aurora kinase B [17]) | inhibition (Aurora kinase B [18]) | inhibition (Aurora kinase B [19]) | inhibition (Aurora kinase B [20]) | inhibition (Aurora kinase B [21]) | inhibition (Aurora kinase B [22]) | inhibition (Aurora kinase B [23]) | inhibition (Homo sapiens [31]) | inhibition (Homo sapiens [32]) Dose-dependent effect
1.71 g: Activity [24]
2: Ratio (HepG2 [11])
21.87 g: Activity [26]
1.44 g: Activity [25]
Non-toxic: Activity (Mus musculus [30]) | Activity (Mus musculus [33])
> 50 µM: IC50 (MDA-MB-231) | IC50 [1] | IC50 (LoVo) | IC50 [2]
22.14 g: Activity [27]
1.3: Ratio (HeLa [13])
39.2%: inhibition in vivo at 10 mg/kg [28]
48.1%: inhibition in vivo at 20 mg/kg [29]
